Experiment [1] concerns the target GST-CBP(1081-1197) bromodomain (Homo sapiens (Human), UniProt Q92793). Kind of experiment: CBP AlphaScreen Assay. Conditions: binding to biotin-H4(1-21) Ac-K5/8/12/16 peptide. The procedure, abridged:
(§1)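 IC50 values derived by variable-slope dose-response fit between negative and DMSO control signals. AlphaScreen signal reports bromodomain association with an H4(1-21) peptide acetylated at K5, K8, K12 and K16.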
(In Alpha technology, singlet oxygen from a donor bead excites a nearby acceptor bead.)

A further experiment concerns the target BRD4(49-170) bromodomain (Homo sapiens (Human), UniProt O60885). Put plainly: BRD4 AlphaScreen Assay. As to conditions: binding to biotin-H4(1-21) Ac-K5/8/12/16 peptide. An outline of the steps: as §1

From patent US11058688B2, “Imidazopiperazine inhibitors of transcription activating proteins” (Board of Regents, The University of Texas System, priority 2018, dated 2021) come the findings set out here.

Structures are written as SMILES. Where only a bound is given, the exact number is not on record here.

Chain of GST-CBP(1081-1197) bromodomain (Q92793 1081-1197): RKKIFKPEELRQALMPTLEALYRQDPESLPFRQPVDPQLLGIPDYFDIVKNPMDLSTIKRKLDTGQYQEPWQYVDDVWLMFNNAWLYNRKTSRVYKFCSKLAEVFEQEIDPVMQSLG

With `CNC(=O)N1CCn2c(C3CCOCC3)nc(-c3cccc4cc(N5CCOCC5)ncc34)c2C1` [Example 63, N-methyl-1-(3-morpholinoisoquinolin-8-yl)-3-(tetrahydro-2H-pyran-4-yl)-5,6-dihydroimidazo[1,5-a]pyrazine-7(8H)-carboxamide], the IC50 in experiment [1] was determined as 0.014 µM; on BRD4(49-170) bromodomain, 23.6 µM.
For the compound `CNC(=O)N1CCn2c(C3CCOCC3)nc(-c3cccc4nc(-c5cnn(C)c5)c(C#N)cc34)c2C1` [Example 64, 1-(3-cyano-2-(1-methyl-1H-pyrazol-4-yl)quinolin-5-yl)-N-methyl-3-(tetrahydro-2H-pyran-4-yl)-5,6-dihydroimidazo[1,5-a]pyrazine-7(8H)-carboxamide], the concentration for half-maximal inhibition (IC50) in experiment [1] worked out at 0.004 µM; at BRD4(49-170) bromodomain, 22.8 µM.
For `CNC(=O)N1CCn2c(C3CCOCC3)nc(-c3cccc4nc(-c5cnn(C)c5)c(C(F)(F)F)cc34)c2C1` [Example 65, N-methyl-1-(2-(1-methyl-1H-pyrazol-4-yl)-3-(trifluoromethyl)quinolin-5-yl)-3-(tetrahydro-2H-pyran-4-yl)-5,6-dihydroimidazo[1,5-a]pyrazine-7(8H)-carboxamide], in that order: 0.004 µM and 13.7 µM.
Take `CNC(=O)N1CCn2c(C3CC(F)(F)C3)nc(-c3cccc4nc(-c5cnn(C)c5)c(C#N)cc34)c2C1` [Example 67, 1-(3-cyano-2-(1-methyl-1H-pyrazol-4-yl)quinolin-5-yl)-3-(3,3-difluorocyclobutyl)-N-methyl-5,6-dihydroimidazo[1,5-a]pyrazine-7(8H)-carboxamide]: the results for the IC50 (in experiment [1]; at BRD4(49-170) bromodomain) were 0.036 µM and > 25 µM, respectively.
With `CNC(=O)N1CCn2c(C3CCOCC3)nc(-c3cccc4cc(C5CCOCC5)ncc34)c2C1` [Example 68, N-methyl-3-(tetrahydro-2H-pyran-4-yl)-1-(3-(tetrahydro-2H-pyran-4-yl)isoquinolin-8-yl)-5,6-dihydroimidazo[1,5-a]pyrazine-7(8H)-carboxamide], the figures for the IC50 (in experiment [1]; on BRD4(49-170) bromodomain) were 0.016 µM and > 25 µM, respectively.
For the compound `CNC(=O)N1CCn2c(C3CC3)nc(-c3cccc4cc(-c5cn(C)nc5C)ncc34)c2C1` [Example 69, 3-cyclopropyl-1-(3-(1,3-dimethyl-1H-pyrazol-4-yl)isoquinolin-8-yl)-N-methyl-5,6-dihydroimidazo[1,5-a]pyrazine-7(8H)-carboxamide], the values for the IC50 (in experiment [1]; on BRD4(49-170) bromodomain) were 0.017 µM and 10.1 µM, respectively.
In the case of `CNC(=O)N1CCn2c(C3CCOCC3)nc(-c3cccc4cc(-c5cn(C)nc5C)ncc34)c2C1` [Example 70, 1-(3-(1,3-dimethyl-1H-pyrazol-4-yl)isoquinolin-8-yl)-N-methyl-3-(tetrahydro-2H-pyran-4-yl)-5,6-dihydroimidazo[1,5-a]pyrazine-7(8H)-carboxamide], the results for the IC50 (in experiment [1]; at BRD4(49-170) bromodomain) were 0.012 µM and 12.3 µM, respectively.
Regarding `CNC(=O)N1CCn2c(C3CC(F)(F)C3)nc(-c3cccc4cc(-c5cn(C)nc5C)ncc34)c2C1` [Example 71, 3-(3,3-difluorocyclobutyl)-1-(3-(1,3-dimethyl-1H-pyrazol-4-yl)isoquinolin-8-yl)-N-methyl-5,6-dihydroimidazo[1,5-a]pyrazine-7(8H)-carboxamide], the IC50 in experiment [1] was 0.038 µM; at BRD4(49-170) bromodomain it was 13.4 µM.
`CNC(=O)N1CCn2c(C3CC3)nc(-c3c(F)ccc4cc(-c5cn(C)nc5C)ncc34)c2C1` [Example 72, 3-cyclopropyl-1-(3-(1,3-dimethyl-1H-pyrazol-4-yl)-7-fluoroisoquinolin-8-yl)-N-methyl-5,6-dihydroimidazo[1,5-a]pyrazine-7(8H)-carboxamide]: the results for the IC50 (in experiment [1]; on BRD4(49-170) bromodomain) were 0.054 µM and 17.1 µM, respectively.
In the case of `CNC(=O)N1CCn2c(C3CCOCC3)nc(-c3c(F)ccc4cc(-c5cn(C)nc5C)ncc34)c2C1` [Example 73, 1-(3-(1,3-dimethyl-1H-pyrazol-4-yl)-7-fluoroisoquinolin-8-yl)-N-methyl-3-(tetrahydro-2H-pyran-4-yl)-5,6-dihydroimidazo[1,5-a]pyrazine-7(8H)-carboxamide], the IC50 in experiment [1] was 0.04 µM; at BRD4(49-170) bromodomain, > 25 µM.
For the compound `CNC(=O)N1CCn2c(C3CCC(F)(F)CC3)nc(-c3cccc4cc(N5CCOCC5)ncc34)c2C1` [Example 74, 3-(4,4-difluorocyclohexyl)-N-methyl-1(3-morpholinoisoquinolin-8-yl)-5,6-dihydroimidazo[1,5-a]pyrazine-7(8H)-carboxamide], the IC50 in experiment [1] was 0.004 µM; at BRD4(49-170) bromodomain, > 25 µM.
Take `CNC(=O)N1CCn2c(C3CC3)nc(-c3c(F)ccc4cc(C5CCOCC5)ncc34)c2C1` [Example 75, 3-cyclopropyl-1-(7-fluoro-3-(tetrahydro-2H-pyran-4-yl)isoquinolin-8-yl)-N-methyl-5,6-dihydroimidazo[1,5-a]pyrazine-7(8H)-carboxamide]: the figures for the IC50 (in experiment [1]; at BRD4(49-170) bromodomain) were 0.022 µM and > 25 µM, respectively.
With `CNC(=O)N1CCn2c(C3CCC(F)(F)CC3)nc(-c3cccc4cc(-c5cn(C)nc5C)ncc34)c2C1` [Example 76, 3-(4,4-difluorocyclohexyl)-1-(3-(1,3-dimethyl-1H-pyrazol-4-yl)isoquinolin-8-yl)-N-methyl-5,6-dihydroimidazo[1,5-a]pyrazine-7(8H)-carboxamide], the figures for the IC50 (in experiment [1]; at BRD4(49-170) bromodomain) were 0.003 µM and 11.9 µM, respectively.
`CNC(=O)N1CCn2c(C3CC(F)(F)C3)nc(-c3c(F)ccc4cc(-c5cn(C)nc5C)ncc34)c2C1` [Example 77, 3-(3,3-difluorocyclobutyl)-1-(3-(1,3-dimethyl-1H-pyrazol-4-yl)-7-fluoroisoquinolin-8-yl)-N-methyl-5,6-dihydroimidazo[1,5-a]pyrazine-7(8H)-carboxamide]: the IC50 in experiment [1] is 0.045 µM; at BRD4(49-170) bromodomain it was > 25 µM.
The like results for `CNC(=O)N1CCn2c(C3CCC(F)(F)CC3)nc(-c3cccc4nc(-c5cnn(C)c5)c(C(F)(F)F)cc34)c2C1` [Example 78, 3-(4,4-difluorocyclohexyl)-N-methyl-1-(2-(1-methyl-1H-pyrazol-4-yl)-3-(trifluoromethyl)quinolin-5-yl)-5,6-dihydroimidazo[1,5-a]pyrazine-7(8H)-carboxamide] were, in that order, 0.001 µM and 13.5 µM.
Turning to `CNC(=O)N1CCn2c(C3CC(F)(F)C3)nc(-c3cccc4cc(-c5ccn(C)n5)ncc34)c2C1` [Example 79, 3-(3,3-difluorocyclobutyl)-N-methyl-1-(3-(1-methyl-1H-pyrazol-3-yl)isoquinolin-8-yl)-5,6-dihydroimidazo[1,5-a]pyrazine-7(8H)-carboxamide], the IC50 in experiment [1] stood at 0.006 µM; at BRD4(49-170) bromodomain, 14.8 µM.
Consider `CNC(=O)N1CCn2c(C3CCC(F)(F)CC3)nc(-c3cccc4cc(-c5ccn(C)n5)ncc34)c2C1` [Example 80, 3-(4,4-difluorocyclohexyl)-N-methyl-1-(3-(1-methyl-1H-pyrazol-3-yl)isoquinolin-8-yl)-5,6-dihydroimidazo[1,5-a]pyrazine-7(8H)-carboxamide], for which the IC50 in experiment [1] amounted to 0.002 µM; on BRD4(49-170) bromodomain it was 11.9 µM.
As to `CNC(=O)N1CCn2c(C3CCC(F)(F)CC3)nc(-c3c(F)ccc4cc(-c5cn(C)nc5C)ncc34)c2C1` [Example 81, 3-(4,4-difluorocyclohexyl)-1-(3-(1,3-dimethyl-1H-pyrazol-4-yl)-7-fluoroisoquinolin-8-yl)-N-methyl-5,6-dihydroimidazo[1,5-a]pyrazine-7(8H)-carboxamide], the IC50 in experiment [1] came to 0.011 µM; on BRD4(49-170) bromodomain it was 10.5 µM.
For the compound `CNC(=O)N1CCn2c(C3CCC(F)(F)CC3)nc(-c3cccc4nc(-c5cnn(C)c5)c(C#N)cc34)c2C1` [Example 82, 1-(3-cyano-2-(1-methyl-1H-pyrazol-4-yl)quinolin-5-yl)-3-(4,4-difluorocyclohexyl)-N-methyl-5,6-dihydroimidazo[1,5-a]pyrazine-7(8H)-carboxamide], the IC50 in experiment [1] was 0.003 µM; on BRD4(49-170) bromodomain, 17.9 µM.
On to `CNC(=O)N1CCn2c(C3CCOCC3)nc(-c3c(F)ccc4cc(C5CCOCC5)ncc34)c2C1` [Example 83, 1-(7-fluoro-3-(tetrahydro-2H-pyran-4-yl)isoquinolin-8-yl)-N-methyl-3-(tetrahydro-2H-pyran-4-yl)-5,6-dihydroimidazo[1,5-a]pyrazine-7(8H)-carboxamide], for which the values for the IC50 (in experiment [1]; on BRD4(49-170) bromodomain) were 0.016 µM and 19.4 µM, respectively.
`CNC(=O)N1CCn2c(C3CCC(F)(F)CC3)nc(-c3cccc4cc(C5CCOCC5)ncc34)c2C1` [Example 84, 3-(4,4-difluorocyclohexyl)-N-methyl-1-(3-(tetrahydro-2H-pyran-4-yl)isoquinolin-8-yl)-5,6-dihydroimidazo[1,5-a]pyrazine-7(8H)-carboxamide]: the IC50 in experiment [1] stood at 0.004 µM; on BRD4(49-170) bromodomain it was 12.1 µM.
With `CNC(=O)N1CCn2c(C3CC(F)(F)C3)nc(-c3cccc4cc(C5CCOCC5)ncc34)c2C1` [Example 85, 3-(3,3-difluorocyclobutyl)-N-methyl-1-(3-(tetrahydro-2H-pyran-4-yl)isoquinolin-8-yl)-5,6-dihydroimidazo[1,5-a]pyrazine-7(8H)-carboxamide], the half-maximal inhibitory concentration (IC50) in experiment [1] is 0.015 µM; at BRD4(49-170) bromodomain, 18.1 µM.
Regarding `CNC(=O)N1CCn2c(C3CCOCC3)nc(-c3c(F)ccc4cc(-c5cnc(C)s5)ncc34)c2C1` [Example 89, 1-(7-fluoro-3-(2-methylthiazol-5-yl)isoquinolin-8-yl)-N-methyl-3-(tetrahydro-2H-pyran-4-yl)-5,6-dihydroimidazo[1,5-a]pyrazine-7(8H)-carboxamide], the IC50 in experiment [1] stood at 0.002 µM; at BRD4(49-170) bromodomain, 6.84 µM.
Consider `CNC(=O)N1CCn2c(C3CCC(F)(F)CC3)nc(-c3c(F)ccc4cc(C5CCOCC5)ncc34)c2C1` [Example 90, 3-(4,4-difluorocyclohexyl)-1-(7-fluoro-3-(tetrahydro-2H-pyran-4-yl)isoquinolin-8-yl)-N-methyl-5,6-dihydroimidazo[1,5-a]pyrazine-7(8H)-carboxamide], for which the IC50 in experiment [1] was 0.004 µM; on BRD4(49-170) bromodomain it was 10.2 µM.

One may read the IC50 as the concentration that gives 50% inhibition. A high value points to a need for much substance.
